“And” between values parts separate entries of the source, which are not always exact repeats. Equal values may be shown once. Numbers after ± are expanded uncertainties.
Legend:
[1] = for molar entropy: 101.33 kPa, Small (less than 1 g) adiabatic calorimetry
[2] = Molar enthalpy of transition or fusion
[3] = Crystal 1, Adiabatic calorimetry

## CC(C)[C@@H]1CC[C@@H](C)C[C@H]1O [L-menthol]
[1]; 5 K, Crystal 1
  molar entropy: 0.2864 ± 0.03 J/K/mol
[1]; 10 K, Crystal 1
  molar entropy: 2.099 ± 0.083 J/K/mol
[1]; 15 K, Crystal 1
  molar entropy: 5.656 ± 0.18 J/K/mol
[1]; 20 K, Crystal 1
  molar entropy: 10.35 ± 0.3 J/K/mol
[1]; 25 K, Crystal 1
  molar entropy: 15.64 ± 0.39 J/K/mol
[1]; 30 K, Crystal 1
  molar entropy: 21.2 ± 0.47 J/K/mol
[1]; 35 K, Crystal 1
  molar entropy: 26.81 ± 0.54 J/K/mol
[1]; 40 K, Crystal 1
  molar entropy: 32.36 ± 0.59 J/K/mol
[1]; 45 K, Crystal 1
  molar entropy: 37.82 ± 0.63 J/K/mol
[1]; 50 K, Crystal 1
  molar entropy: 43.18 ± 0.69 J/K/mol
[1]; 55 K, Crystal 1
  molar entropy: 48.45 ± 0.73 J/K/mol
[1]; 60 K, Crystal 1
  molar entropy: 53.64 ± 0.77 J/K/mol
[1]; 65 K, Crystal 1
  molar entropy: 58.76 ± 0.81 J/K/mol
[1]; 70 K, Crystal 1
  molar entropy: 63.82 ± 0.85 J/K/mol
[1]; 75 K, Crystal 1
  molar entropy: 68.83 ± 0.89 J/K/mol
[1]; 80 K, Crystal 1
  molar entropy: 73.79 ± 0.93 J/K/mol
[1]; 85 K, Crystal 1
  molar entropy: 78.72 ± 0.96 J/K/mol
[1]; 90 K, Crystal 1
  molar entropy: 83.6 ± 1 J/K/mol
[1]; 95 K, Crystal 1
  molar entropy: 88.45 ± 1.1 J/K/mol
[1]; 100 K, Crystal 1
  molar entropy: 93.27 ± 1.1 J/K/mol
[1]; 105 K, Crystal 1
  molar entropy: 98.05 ± 1.1 J/K/mol
[1]; 110 K, Crystal 1
  molar entropy: 102.8 ± 1.1 J/K/mol
[1]; 115 K, Crystal 1
  molar entropy: 107.5 ± 1.2 J/K/mol
[1]; 120 K, Crystal 1
  molar entropy: 112.2 ± 1.3 J/K/mol
[1]; 125 K, Crystal 1
  molar entropy: 116.8 ± 1.3 J/K/mol
[1]; 130 K, Crystal 1
  molar entropy: 121.4 ± 1.3 J/K/mol
[1]; 135 K, Crystal 1
  molar entropy: 126 ± 1.3 J/K/mol
[1]; 140 K, Crystal 1
  molar entropy: 130.6 ± 1.3 J/K/mol
[1]; 145 K, Crystal 1
  molar entropy: 135.1 ± 1.4 J/K/mol
[1]; 150 K, Crystal 1
  molar entropy: 139.5 ± 1.4 J/K/mol
[1]; 155 K, Crystal 1
  molar entropy: 144 ± 1.5 J/K/mol
[1]; 160 K, Crystal 1
  molar entropy: 148.4 ± 1.5 J/K/mol
[1]; 165 K, Crystal 1
  molar entropy: 152.8 ± 1.5 J/K/mol
[1]; 170 K, Crystal 1
  molar entropy: 157.2 ± 1.6 J/K/mol
[1]; 175 K, Crystal 1
  molar entropy: 161.5 ± 1.6 J/K/mol
[1]; 180 K, Crystal 1
  molar entropy: 165.8 ± 1.6 J/K/mol
[1]; 185 K, Crystal 1
  molar entropy: 170.1 ± 1.6 J/K/mol
[1]; 190 K, Crystal 1
  molar entropy: 174.4 ± 1.7 J/K/mol
[1]; 195 K, Crystal 1
  molar entropy: 178.7 ± 1.7 J/K/mol
[1]; 200 K, Crystal 1
  molar entropy: 182.9 ± 1.8 J/K/mol
[1]; 205 K, Crystal 1
  molar entropy: 187.1 ± 1.8 J/K/mol
[1]; 210 K, Crystal 1
  molar entropy: 191.4 ± 1.8 J/K/mol
[1]; 215 K, Crystal 1
  molar entropy: 195.5 ± 1.8 J/K/mol
[1]; 220 K, Crystal 1
  molar entropy: 199.7 ± 1.8 J/K/mol
[1]; 225 K, Crystal 1
  molar entropy: 203.9 ± 1.8 J/K/mol
[1]; 230 K, Crystal 1
  molar entropy: 208.1 ± 2 J/K/mol
[1]; 235 K, Crystal 1
  molar entropy: 212.2 ± 2 J/K/mol
[1]; 240 K, Crystal 1
  molar entropy: 216.3 ± 2 J/K/mol
[1]; 245 K, Crystal 1
  molar entropy: 220.5 ± 2 J/K/mol
[1]; 250 K, Crystal 1
  molar entropy: 224.6 ± 2 J/K/mol
[1]; 255 K, Crystal 1
  molar entropy: 228.7 ± 2 J/K/mol
[1]; 260 K, Crystal 1
  molar entropy: 232.9 ± 2.2 J/K/mol
[1]; 265 K, Crystal 1
  molar entropy: 237 ± 2.2 J/K/mol
[1]; 270 K, Crystal 1
  molar entropy: 241.2 ± 2.2 J/K/mol
[1]; 273.64 K, Crystal 1, Closed cell (Static) method
  vapor or sublimation pressure: 0.000244 ± 0.00014 kPa
[1]; 273.65 K, Crystal 1, Closed cell (Static) method
  vapor or sublimation pressure: 0.000244 ± 0.00014 kPa and 0.000242 ± 0.00014 kPa
[1]; 275 K, Crystal 1
  molar entropy: 245.3 ± 2.2 J/K/mol
[1]; 277.38 K, Crystal 1, Closed cell (Static) method
  vapor or sublimation pressure: 0.000399 ± 0.00014 kPa
[1]; 277.41 K, Crystal 1, Closed cell (Static) method
  vapor or sublimation pressure: 0.000401 ± 0.00014 kPa
[1]; 277.5 K, Crystal 1, Closed cell (Static) method
  vapor or sublimation pressure: 0.000403 ± 0.00014 kPa
[1]; 278.15 K, Crystal 1, Closed cell (Static) method
  vapor or sublimation pressure: 0.000441 ± 0.00014 kPa and 0.00044 ± 0.00014 kPa
[1]; 278.16 K, Crystal 1, Closed cell (Static) method
  vapor or sublimation pressure: 0.00044 ± 0.00014 kPa
[1]; 280 K, Crystal 1
  molar entropy: 249.5 ± 2.2 J/K/mol
[1]; 282.34 K, Crystal 1, Closed cell (Static) method
  vapor or sublimation pressure: 0.000758 ± 0.00014 kPa and 0.000756 ± 0.00014 kPa and 0.000759 ± 0.00014 kPa
[1]; 283.15 K, Crystal 1, Closed cell (Static) method
  vapor or sublimation pressure: 0.000839 ± 0.00014 kPa and 0.00084 ± 0.00014 kPa
[1]; 285 K, Crystal 1
  molar entropy: 253.6 ± 2.2 J/K/mol
[1]; 286.97 K, Crystal 1, Closed cell (Static) method
  vapor or sublimation pressure: 0.001352 ± 0.00015 kPa and 0.001354 ± 0.00015 kPa
[1]; 286.98 K, Crystal 1, Closed cell (Static) method
  vapor or sublimation pressure: 0.001355 ± 0.00015 kPa
[1]; 288.15 K, Crystal 1, Closed cell (Static) method
  vapor or sublimation pressure: 0.001557 ± 0.00015 kPa and 0.001559 ± 0.00015 kPa
[1]; 288.16 K, Crystal 1, Closed cell (Static) method
  vapor or sublimation pressure: 0.001558 ± 0.00015 kPa
[1]; 290 K, Crystal 1
  molar entropy: 257.8 ± 2.3 J/K/mol
[1]; 291.56 K, Crystal 1, Closed cell (Static) method
  vapor or sublimation pressure: 0.002353 ± 0.00016 kPa
[1]; 291.57 K, Crystal 1, Closed cell (Static) method
  vapor or sublimation pressure: 0.002354 ± 0.00016 kPa
[1]; 291.6 K, Crystal 1, Closed cell (Static) method
  vapor or sublimation pressure: 0.002364 ± 0.00017 kPa
[1]; 293.14 K, Crystal 1, Closed cell (Static) method
  vapor or sublimation pressure: 0.002829 ± 0.00018 kPa and 0.002828 ± 0.00017 kPa and 0.002831 ± 0.00018 kPa
[1]; 295 K, Crystal 1
  molar entropy: 261.9 ± 2.4 J/K/mol
[1]; 296.23 K, Crystal 1, Closed cell (Static) method
  vapor or sublimation pressure: 0.004057 ± 0.0002 kPa and 0.004052 ± 0.0002 kPa
[1]; 296.25 K, Crystal 1, Closed cell (Static) method
  vapor or sublimation pressure: 0.004063 ± 0.0002 kPa
[1]; 298.15 K, Crystal 1
  molar entropy: 264.6 ± 2.4 J/K/mol
[1]; 298.15 K, Crystal 1, Closed cell (Static) method
  vapor or sublimation pressure: 0.005047 ± 0.00023 kPa and 0.005039 ± 0.00023 kPa and 0.005033 ± 0.00023 kPa
[1]; 300 K, Crystal 1
  molar entropy: 266.1 ± 2.4 J/K/mol
[1]; 300.84 K, Crystal 1, Closed cell (Static) method
  vapor or sublimation pressure: 0.006809 ± 0.0003 kPa
[1]; 300.85 K, Crystal 1, Closed cell (Static) method
  vapor or sublimation pressure: 0.006831 ± 0.0003 kPa
[1]; 300.86 K, Crystal 1, Closed cell (Static) method
  vapor or sublimation pressure: 0.006832 ± 0.0003 kPa
[1]; 303 K, Metastable liquid
  vapor or sublimation pressure: 0.01038 ± 0.00024 kPa and 0.01037 ± 0.00024 kPa
[1]; 303.14 K, Crystal 1, Closed cell (Static) method
  vapor or sublimation pressure: 0.008771 ± 0.00036 kPa and 0.008757 ± 0.00036 kPa and 0.008761 ± 0.00036 kPa
[1]; 305 K, Crystal 1
  molar entropy: 270.4 ± 2.4 J/K/mol
[1]; 305.45 K, Crystal 1, Closed cell (Static) method
  vapor or sublimation pressure: 0.01128 ± 0.00047 kPa
[1]; 308.15 K, Crystal 1, Closed cell (Static) method
  vapor or sublimation pressure: 0.01501 ± 0.00055 kPa and 0.015 ± 0.00055 kPa
[1]; 308.15 K, Metastable liquid
  vapor or sublimation pressure: 0.01672 ± 0.00023 kPa and 0.0167 ± 0.00023 kPa
[1]; 308.18 K, Metastable liquid
  vapor or sublimation pressure: 0.01676 ± 0.00037 kPa
[1]; 308.19 K, Metastable liquid
  vapor or sublimation pressure: 0.01678 ± 0.00037 kPa
[1]; 308.2 K, Metastable liquid
  vapor or sublimation pressure: 0.01678 ± 0.00037 kPa
[1]; 310 K, Crystal 1
  molar entropy: 274.6 ± 2.4 J/K/mol
[1]; 310.04 K, Crystal 1, Closed cell (Static) method
  vapor or sublimation pressure: 0.01833 ± 0.00066 kPa
[1]; 310.07 K, Crystal 1, Closed cell (Static) method
  vapor or sublimation pressure: 0.0184 ± 0.00066 kPa and 0.01842 ± 0.00066 kPa
[1]; 313.38 K, Metastable liquid
  vapor or sublimation pressure: 0.02657 ± 0.00058 kPa and 0.02658 ± 0.00058 kPa and 0.02656 ± 0.00058 kPa
[1]; 314.67 K, Crystal 1, Closed cell (Static) method
  vapor or sublimation pressure: 0.02949 ± 0.00092 kPa and 0.02946 ± 0.00092 kPa
[1]; 315 K, Crystal 1
  molar entropy: 278.9 ± 2.4 J/K/mol
[1]; 315.6 K, Crystal 1
  molar entropy: 279.4 ± 2.4 J/K/mol
[1]; 315.6 K, Liquid
  molar entropy: 322.1 ± 2.7 J/K/mol
[1]; 318.43 K, Liquid
  vapor or sublimation pressure: 0.0408 ± 0.00088 kPa
[1]; 318.46 K, Liquid
  vapor or sublimation pressure: 0.04088 ± 0.00088 kPa
[1]; 318.47 K, Liquid
  vapor or sublimation pressure: 0.04094 ± 0.00088 kPa
[1]; 320 K, Liquid
  molar entropy: 327.3 ± 2.8 J/K/mol
[1]; 323.48 K, Liquid
  vapor or sublimation pressure: 0.06146 ± 0.0013 kPa
[1]; 323.5 K, Liquid
  vapor or sublimation pressure: 0.06158 ± 0.0013 kPa
[1]; 323.51 K, Liquid
  vapor or sublimation pressure: 0.06164 ± 0.0013 kPa
[1]; 325 K, Liquid
  molar entropy: 333.3 ± 2.9 J/K/mol
[1]; 328.56 K, Liquid
  vapor or sublimation pressure: 0.09137 ± 0.002 kPa and 0.09138 ± 0.002 kPa
[1]; 330 K, Liquid
  molar entropy: 339.4 ± 2.9 J/K/mol
[1]; 332.75 K, Liquid
  vapor or sublimation pressure: 0.1252 ± 0.0027 kPa
[1]; 335 K, Liquid
  molar entropy: 345.4 ± 2.9 J/K/mol
[1]; 337.81 K, Liquid
  vapor or sublimation pressure: 0.1804 ± 0.0039 kPa
[1]; 337.82 K, Liquid
  vapor or sublimation pressure: 0.1805 ± 0.0039 kPa
[1]; 340 K, Liquid
  molar entropy: 351.5 ± 2.9 J/K/mol
[1]; 342.89 K, Liquid
  vapor or sublimation pressure: 0.2562 ± 0.0055 kPa and 0.2563 ± 0.0055 kPa
[1]; 345 K, Liquid
  molar entropy: 357.5 ± 3.1 J/K/mol
[1]; 347.88 K, Liquid
  vapor or sublimation pressure: 0.3573 ± 0.0076 kPa
[1]; 350 K, Liquid
  molar entropy: 363.5 ± 3.1 J/K/mol
[1]; 352.88 K, Liquid
  vapor or sublimation pressure: 0.4914 ± 0.01 kPa
[1]; 352.89 K, Liquid
  vapor or sublimation pressure: 0.4914 ± 0.01 kPa
[1]; 355 K, Liquid
  molar entropy: 369.6 ± 3.1 J/K/mol
[1]; 357.86 K, Liquid
  vapor or sublimation pressure: 0.6662 ± 0.014 kPa
[1]; 357.87 K, Liquid
  vapor or sublimation pressure: 0.6664 ± 0.014 kPa
[1]; 360 K, Liquid
  molar entropy: 375.6 ± 3.1 J/K/mol
[1]; 362.82 K, Liquid
  vapor or sublimation pressure: 0.8914 ± 0.019 kPa
[1]; 362.83 K, Liquid
  vapor or sublimation pressure: 0.8915 ± 0.019 kPa
[1]; 365 K, Liquid
  molar entropy: 381.5 ± 3.3 J/K/mol
[1]; 370 K, Liquid
  molar entropy: 387.5 ± 3.3 J/K/mol
[1]; [3]
  Triple point temperature: 315.6 ± 0.04 K
[1]; Crystal 1, DSC
  Triple point temperature: 315.4 ± 0.8 K
[1]; Metastable crystal, DSC
  Triple point temperature: 310 ± 0.8 K
[2]; [3]
  Molar enthalpy of transition or fusion: 3.22 ± 0.0139 kcal/mol
[2]; Crystal 1, DSC
  Molar enthalpy of transition or fusion: 3.18 ± 0.0956 kcal/mol
[2]; Metastable crystal, DSC
  Molar enthalpy of transition or fusion: 2.72 ± 0.143 kcal/mol

From the NIST ThermoML archive (doi:10.1016/j.jct.2018.11.004)
